Measured values from patent US8969554B2, “6-acyl-1,2,4-triazine-3,5-dione derivative and herbicides” (Kumiai Chemical Industry Co., Ltd., priority 2010, dated 2015).

Legend:
Assay type in all cases: in vivo
Parameters in all cases: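 index 0 to 10 in 10% steps of herbicidal effect with 10 meaning complete death and 0 below 10%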
Echinochloa oryzicola = assay: Herbicidal activity by paddy field soil treatment (Test Example 1); conditions: 1000 g of effective component per hectare, evaluated on day 21 after the treatment, criteria of Table 72
Procedure: (§1) Test for Determining Herbicidal Activity by Paddy Field Soil Treatment A 100 cm^2 wide plastic pot was filled with a paddy field soil and, after watering and shuffling, seeds of each of Echinochloa oryzicola, Monochoria vaginalis, and Scirpus juncoides Rocxb. were sowed and watered to a depth of 3 cm. On the next day, the wettable powder obtained in view of Formulation example 1 was diluted with water and applied on water surface. The application amount was 1000 g of effective component per hectare. After that, the plants were cultivated in a greenhouse, and on day 21 after the treatment, evaluation was made by the criteria of Table 72 for determining the herbicidal effects. [table]

Monochoria vaginalis = assay: as above; conditions: 1000 g of effective component per hectare, evaluated on day 21 after the treatment, criteria of Table 72
Procedure: as §1

Scirpus juncoides Rocxb. = assay: as above; conditions: applied on water surface, 1000 g of effective component per hectare, day 21 after the treatment
Procedure: as §1

A. retroflexus [1] = assay: Herbicidal activity by field soil treatment (Test example 2); conditions: 1000 g effective component per hectare, day 21 after the treatment
Procedure: (§2) [table] Test for Determining Herbicidal Activity by Field Soil Treatment A 80 cm^2 wide plastic pot was filled with a field soil and seeds of each of Echinochloa crus-galli, foxtail, Indian millet, and A. retroflexus were sowed and then covered with soil. The wettable powder produced with reference to the Formulation example 1 was diluted water, and applied on the soil surface by using a small sprayer in an amount of 1000 liters per hectare so that the effective component is 1000 g per hectare. After that, the plants were cultivated in a greenhouse, and on day 21 after the treatment, evaluation was made by the criteria described in Table 72 for determining the herbicidal effects.

Echinochloa crus-galli [2] = assay: as above; conditions: 1000 g effective component per hectare, day 21 after the treatment
Procedure: as §2

Indian millet [3] = assay: as above; conditions: 1000 g effective component per hectare, day 21 after the treatment
Procedure: as §2

A. retroflexus [4] = assay: Herbicidal activity by field foliage treatment (Test example 3); conditions: 1000 g effective component per hectare, day 14 after the treatment
Procedure: (§3) [table] Test for Determining Herbicidal Activity by Field Foliage Treatment A 80 cm^2 wide plastic pot was filled with a field soil and seeds of each of Indian millet and A. retroflexus were sowed and then incubated for 2 weeks in a green house. The wettable powder produced with reference to the Formulation example 1 was diluted water, and applied from the air to entire body of the plant as foliage treatment by using a small sprayer in an amount of 1000 liters per hectare so that the effective component is 1000 g per hectare. After that, the plants were cultivated in a greenhouse, and on day 14 after the treatment, evaluation was made by the criteria described in Table 72 for determining the herbicidal effects.

Indian millet [5] = assay: as above; conditions: 1000 g effective component per hectare, day 14 after the treatment
Procedure: as §3

Echinochloa crus-galli [6] = assay: as above; conditions: 1000 g effective component per hectare, day 14 after the treatment
Procedure: as §3, with “Test example 3” for “[table]”

COc1cc(Cl)cc(-n2c(=O)c(C(=O)C3=C(O)CCCC3=O)nn(C)c2=O)c1 [I-120]
9: herbicidal effect index, Abutilon theophrasti (Indian millet [3]) | herbicidal effect index, Abutilon theophrasti (Indian millet [5]) | herbicidal effect index, Echinochloa crus-galli (Echinochloa crus-galli [6])
8: Herbicidal effects index number, Echinochloa oryzicola (Echinochloa oryzicola) | herbicidal effect index, Echinochloa crus-galli (Echinochloa crus-galli [2])
10: Herbicidal effects index number, Monochoria vaginalis (Monochoria vaginalis) | herbicidal effect index, S. juncoides Rocxb. (Scirpus juncoides Rocxb.) | herbicidal effect index, Amaranthus retroflexus (A. retroflexus [1]) | herbicidal effect index, Amaranthus retroflexus (A. retroflexus [4])

Cc1cc(-n2c(=O)c(C(=O)C3=C(O)CCCC3=O)nn(C)c2=O)ccc1Cl [I-135]
10: Herbicidal effects index number, Echinochloa oryzicola (Echinochloa oryzicola) | Herbicidal effects index number, Monochoria vaginalis (Monochoria vaginalis) | herbicidal effect index, S. juncoides Rocxb. (Scirpus juncoides Rocxb.) | herbicidal effect index, Amaranthus retroflexus (A. retroflexus [1]) | herbicidal effect index, Amaranthus retroflexus (A. retroflexus [4]) | herbicidal effect index, Abutilon theophrasti (Indian millet [5]) | herbicidal effect index, Echinochloa crus-galli (Echinochloa crus-galli [6])
9: herbicidal effect index, Echinochloa crus-galli (Echinochloa crus-galli [2]) | herbicidal effect index, Abutilon theophrasti (Indian millet [3])

CCN(c1ccccc1)n1c(=O)c(C(=O)O)nn(C)c1=O [V-368]
9: herbicidal effect index, Amaranthus retroflexus (A. retroflexus [4]) | herbicidal effect index, Abutilon theophrasti (Indian millet [5])
7: herbicidal effect index, Echinochloa crus-galli (Echinochloa crus-galli [2]) | herbicidal effect index, Echinochloa crus-galli (Echinochloa crus-galli [6])
10: Herbicidal effects index number, Echinochloa oryzicola (Echinochloa oryzicola) | Herbicidal effects index number, Monochoria vaginalis (Monochoria vaginalis) | herbicidal effect index, S. juncoides Rocxb. (Scirpus juncoides Rocxb.) | herbicidal effect index, Amaranthus retroflexus (A. retroflexus [1]) | herbicidal effect index, Abutilon theophrasti (Indian millet [3])

O=C1CCCC(O)=C1C(=O)c1nn(CC(F)(F)F)c(=O)n(-c2ccccc2)c1=O [I-477]
10: Herbicidal effects index number, Echinochloa oryzicola (Echinochloa oryzicola) | Herbicidal effects index number, Monochoria vaginalis (Monochoria vaginalis) | herbicidal effect index, S. juncoides Rocxb. (Scirpus juncoides Rocxb.) | herbicidal effect index, Amaranthus retroflexus (A. retroflexus [1]) | herbicidal effect index, Abutilon theophrasti (Indian millet [3]) | herbicidal effect index, Amaranthus retroflexus (A. retroflexus [4])
9: herbicidal effect index, Echinochloa crus-galli (Echinochloa crus-galli [2]) | herbicidal effect index, Abutilon theophrasti (Indian millet [5]) | herbicidal effect index, Echinochloa crus-galli (Echinochloa crus-galli [6])

Cc1cc(-n2c(=O)c(C(=O)C3=C(O)CCCC3=O)nn(C)c2=O)ccc1F [I-115]
9: herbicidal effect index, Amaranthus retroflexus (A. retroflexus [1]) | herbicidal effect index, Echinochloa crus-galli (Echinochloa crus-galli [2]) | herbicidal effect index, Abutilon theophrasti (Indian millet [3])
10: Herbicidal effects index number, Echinochloa oryzicola (Echinochloa oryzicola) | Herbicidal effects index number, Monochoria vaginalis (Monochoria vaginalis) | herbicidal effect index, S. juncoides Rocxb. (Scirpus juncoides Rocxb.) | herbicidal effect index, Amaranthus retroflexus (A. retroflexus [4]) | herbicidal effect index, Abutilon theophrasti (Indian millet [5]) | herbicidal effect index, Echinochloa crus-galli (Echinochloa crus-galli [6])

CN(c1ccc(F)cc1)n1c(=O)c(C(=O)C2=C(O)CCCC2=O)nn(C)c1=O [I-476]
10: Herbicidal effects index number, Echinochloa oryzicola (Echinochloa oryzicola) | Herbicidal effects index number, Monochoria vaginalis (Monochoria vaginalis) | herbicidal effect index, S. juncoides Rocxb. (Scirpus juncoides Rocxb.) | herbicidal effect index, Amaranthus retroflexus (A. retroflexus [1]) | herbicidal effect index, Abutilon theophrasti (Indian millet [3]) | herbicidal effect index, Amaranthus retroflexus (A. retroflexus [4])
9: herbicidal effect index, Abutilon theophrasti (Indian millet [5])
7: herbicidal effect index, Echinochloa crus-galli (Echinochloa crus-galli [2]) | herbicidal effect index, Echinochloa crus-galli (Echinochloa crus-galli [6])

Cc1ccc(-n2c(=O)c(C(=O)C3=C(O)CCCC3=O)nn(C)c2=O)nc1 [I-182]
7: herbicidal effect index, Echinochloa crus-galli (Echinochloa crus-galli [2])
8: Herbicidal effects index number, Monochoria vaginalis (Monochoria vaginalis) | herbicidal effect index, Echinochloa crus-galli (Echinochloa crus-galli [6])
9: herbicidal effect index, S. juncoides Rocxb. (Scirpus juncoides Rocxb.) | herbicidal effect index, Amaranthus retroflexus (A. retroflexus [4]) | herbicidal effect index, Abutilon theophrasti (Indian millet [5])
10: herbicidal effect index, Amaranthus retroflexus (A. retroflexus [1]) | herbicidal effect index, Abutilon theophrasti (Indian millet [3])

Cn1nc(C(=O)C2=C(O)CCCC2=O)c(=O)n(-c2ccc(C(F)(F)F)cc2)c1=O [I-65]
10: Herbicidal effects index number, Echinochloa oryzicola (Echinochloa oryzicola) | Herbicidal effects index number, Monochoria vaginalis (Monochoria vaginalis) | herbicidal effect index, S. juncoides Rocxb. (Scirpus juncoides Rocxb.) | herbicidal effect index, Amaranthus retroflexus (A. retroflexus [1]) | herbicidal effect index, Echinochloa crus-galli (Echinochloa crus-galli [2]) | herbicidal effect index, Abutilon theophrasti (Indian millet [3]) | herbicidal effect index, Amaranthus retroflexus (A. retroflexus [4]) | herbicidal effect index, Abutilon theophrasti (Indian millet [5])
8: herbicidal effect index, Echinochloa crus-galli (Echinochloa crus-galli [6])

Cc1cc(C)cc(-n2c(=O)c(C(=O)C3=C(O)CCCC3=O)nn(C)c2=O)c1 [I-88]
8: herbicidal effect index, Echinochloa crus-galli (Echinochloa crus-galli [2]) | herbicidal effect index, Echinochloa crus-galli (Echinochloa crus-galli [6])
9: herbicidal effect index, Abutilon theophrasti (Indian millet [5])
10: Herbicidal effects index number, Echinochloa oryzicola (Echinochloa oryzicola) | Herbicidal effects index number, Monochoria vaginalis (Monochoria vaginalis) | herbicidal effect index, S. juncoides Rocxb. (Scirpus juncoides Rocxb.) | herbicidal effect index, Amaranthus retroflexus (A. retroflexus [1]) | herbicidal effect index, Abutilon theophrasti (Indian millet [3]) | herbicidal effect index, Amaranthus retroflexus (A. retroflexus [4])

COc1ccc(-n2c(=O)c(C(=O)C3=C(O)CCCC3=O)nn(C)c2=O)cc1C [I-149]
8: herbicidal effect index, Echinochloa crus-galli (Echinochloa crus-galli [2]) | herbicidal effect index, Echinochloa crus-galli (Echinochloa crus-galli [6])
9: Herbicidal effects index number, Echinochloa oryzicola (Echinochloa oryzicola)
10: Herbicidal effects index number, Monochoria vaginalis (Monochoria vaginalis) | herbicidal effect index, S. juncoides Rocxb. (Scirpus juncoides Rocxb.) | herbicidal effect index, Amaranthus retroflexus (A. retroflexus [1]) | herbicidal effect index, Abutilon theophrasti (Indian millet [3]) | herbicidal effect index, Amaranthus retroflexus (A. retroflexus [4]) | herbicidal effect index, Abutilon theophrasti (Indian millet [5])

Cc1cc(F)cc(-n2c(=O)c(C(=O)C3=C(O)CCCC3=O)nn(C)c2=O)c1 [I-106]
10: Herbicidal effects index number, Echinochloa oryzicola (Echinochloa oryzicola) | Herbicidal effects index number, Monochoria vaginalis (Monochoria vaginalis) | herbicidal effect index, S. juncoides Rocxb. (Scirpus juncoides Rocxb.) | herbicidal effect index, Amaranthus retroflexus (A. retroflexus [1]) | herbicidal effect index, Echinochloa crus-galli (Echinochloa crus-galli [2]) | herbicidal effect index, Abutilon theophrasti (Indian millet [3]) | herbicidal effect index, Amaranthus retroflexus (A. retroflexus [4]) | herbicidal effect index, Echinochloa crus-galli (Echinochloa crus-galli [6])
9: herbicidal effect index, Abutilon theophrasti (Indian millet [5])

Cn1nc(C(=O)C2=C(O)CCCC2=O)c(=O)n(-c2cccs2)c1=O [I-198]
10: Herbicidal effects index number, Monochoria vaginalis (Monochoria vaginalis) | herbicidal effect index, S. juncoides Rocxb. (Scirpus juncoides Rocxb.) | herbicidal effect index, Amaranthus retroflexus (A. retroflexus [1]) | herbicidal effect index, Abutilon theophrasti (Indian millet [3]) | herbicidal effect index, Amaranthus retroflexus (A. retroflexus [4]) | herbicidal effect index, Abutilon theophrasti (Indian millet [5]) | herbicidal effect index, Echinochloa crus-galli (Echinochloa crus-galli [6])
8: Herbicidal effects index number, Echinochloa oryzicola (Echinochloa oryzicola)
7: herbicidal effect index, Echinochloa crus-galli (Echinochloa crus-galli [2])

Cn1nc(C(=O)C2=C(O)CCCC2=O)c(=O)n(-c2ccc(F)cc2)c1=S [I-480]
9: herbicidal effect index, Echinochloa crus-galli (Echinochloa crus-galli [6])
10: Herbicidal effects index number, Echinochloa oryzicola (Echinochloa oryzicola) | herbicidal effect index, S. juncoides Rocxb. (Scirpus juncoides Rocxb.) | herbicidal effect index, Amaranthus retroflexus (A. retroflexus [1]) | herbicidal effect index, Abutilon theophrasti (Indian millet [3]) | herbicidal effect index, Amaranthus retroflexus (A. retroflexus [4]) | herbicidal effect index, Abutilon theophrasti (Indian millet [5])
8: herbicidal effect index, Echinochloa crus-galli (Echinochloa crus-galli [2])
